Results on 41 compounds are retold here after ChEMBL document CHEMBL3039007, “Structure-based identification of OATP1B1/3 inhibitors” (Mol Pharmacol, 2013).

In series [1] the target is T1, Solute carrier organic anion transporter family member 1B1 (Homo sapiens, UniProt Q9Y6L6).
T1 sequence (Q9Y6L6 whole entry): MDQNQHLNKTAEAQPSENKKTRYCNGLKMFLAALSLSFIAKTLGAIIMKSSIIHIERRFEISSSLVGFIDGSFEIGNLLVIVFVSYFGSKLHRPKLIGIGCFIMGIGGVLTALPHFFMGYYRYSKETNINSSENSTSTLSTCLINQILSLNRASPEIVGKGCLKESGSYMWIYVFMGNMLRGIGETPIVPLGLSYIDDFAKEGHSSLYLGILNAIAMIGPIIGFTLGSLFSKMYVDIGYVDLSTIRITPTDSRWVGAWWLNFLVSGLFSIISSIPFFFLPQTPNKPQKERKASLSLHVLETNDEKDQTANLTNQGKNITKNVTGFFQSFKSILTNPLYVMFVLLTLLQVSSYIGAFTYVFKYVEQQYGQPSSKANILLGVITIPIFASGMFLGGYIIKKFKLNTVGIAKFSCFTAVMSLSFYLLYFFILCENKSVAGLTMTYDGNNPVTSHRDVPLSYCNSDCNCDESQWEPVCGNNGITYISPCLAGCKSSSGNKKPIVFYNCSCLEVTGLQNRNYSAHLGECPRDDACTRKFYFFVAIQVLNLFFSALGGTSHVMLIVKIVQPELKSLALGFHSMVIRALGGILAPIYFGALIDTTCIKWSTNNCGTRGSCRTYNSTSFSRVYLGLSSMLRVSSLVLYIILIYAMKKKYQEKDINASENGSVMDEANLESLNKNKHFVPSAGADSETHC
To be noted: chinese hamster, cho, 10 µM.

The target of series [2] is T2, Solute carrier organic anion transporter family member 1B3 (Homo sapiens, UniProt Q9NPD5).
T2 sequence (Q9NPD5 whole entry): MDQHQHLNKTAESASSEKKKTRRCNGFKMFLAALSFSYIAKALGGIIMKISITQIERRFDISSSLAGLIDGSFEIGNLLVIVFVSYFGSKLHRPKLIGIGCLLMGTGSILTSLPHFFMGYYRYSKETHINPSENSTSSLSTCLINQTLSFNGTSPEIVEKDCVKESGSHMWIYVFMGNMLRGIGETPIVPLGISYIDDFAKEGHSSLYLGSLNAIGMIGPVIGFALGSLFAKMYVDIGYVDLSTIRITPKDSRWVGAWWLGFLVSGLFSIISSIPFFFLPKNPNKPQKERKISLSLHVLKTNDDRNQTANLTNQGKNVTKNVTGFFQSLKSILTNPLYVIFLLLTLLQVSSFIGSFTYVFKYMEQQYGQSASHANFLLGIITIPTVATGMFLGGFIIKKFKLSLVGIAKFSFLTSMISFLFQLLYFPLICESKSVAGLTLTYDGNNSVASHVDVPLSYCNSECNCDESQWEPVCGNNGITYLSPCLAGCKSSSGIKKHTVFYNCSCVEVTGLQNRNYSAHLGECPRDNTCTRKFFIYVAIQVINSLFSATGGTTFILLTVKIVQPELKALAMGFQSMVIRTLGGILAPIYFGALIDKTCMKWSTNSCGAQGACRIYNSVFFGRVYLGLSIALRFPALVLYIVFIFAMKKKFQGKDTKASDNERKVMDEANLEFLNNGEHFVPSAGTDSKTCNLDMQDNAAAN
The settings on record: chinese hamster, cho, 10 µM.

As to `C1N2CN3CN1CN(C2)C3` [METHENAMINE], the figures for the residual activity in series [1] and in series [2] were 93.33% and 72.89%, respectively.
For `Cn1cc[nH]c1=S` [METHIMAZOLE] the same measures were 111.7% and 105.6%.
The matching figures for `COc1ccccc1OCC(O)COC(N)=O` (configuration not stated) [METHOCARBAMOL]: 101.2% and 104.7%.
With `CNC(=O)ON=C(C)SC` [METHOMYL], the results for the residual activity in series [1] and in series [2] were 80.5% and 109.3%, respectively.
For `COc1ccc(OC)c(C(O)C(C)N)c1.Cl` (configuration not stated) [METHOXAMINE HYDROCHLORIDE] the same measures were 80.21% and 104.7%.
For `COc1c2occc2cc2ccc(=O)oc12` [METHOXSALEN] the same measures were 102.5% and 107.3%.
For the compound `CON.Cl` [METHOXYAMINE HYDROCHLORIDE], the values for the residual activity in series [1] and in series [2] were 118.4% and 108.6%, respectively.
`COc1ccc(C(c2ccc(OC)cc2)C(Cl)(Cl)Cl)cc1` [METHOXYCHLOR]: the residual activity – broadly, the signal under treatment as a percentage of the control signal – in series [1] is recorded as 114%; in series [2] it was 102.3%.
The matching figures for `COc1cc(C)c2c(=O)cc(-c3ccccc3)oc2c1` [METHOXYVONE]: 231.1% and 102.8%.
For the compound `C[N+]1(C)[C@@H]2C[C@@H](OC(=O)[C@H](CO)c3ccccc3)C[C@H]1[C@@H]1O[C@@H]12.[Br-]` [METHSCOPOLAMINE BROMIDE], the residual activity in series [1] is 104.8%; in series [2], 92.61%.
The matching figures for `COC(=O)c1cc(O)c(=O)c2c(O)c(O)ccc2c1` [METHYL 7-DESHYDROXYPYROGALLIN-4-CARBOXYLATE]: 48.16% and 80.24%.
The matching figures for `COC(=O)c1cc(OC)c(=O)c2c(OC)c(OC)ccc2c1` [METHYL 7-DESOXYPURPUROGALLIN-7-CARBOXYLATE TRIMETHYL ETHER]: 133.8% and 100.1%.
The matching figures for `COc1cc2c(cc1O)C(Cc1ccc(O)cc1)N(C)CC2` (configuration not stated) [METHYL COCLAURINE]: 96.63% and 94.46%.
`COC(=O)CC[C@@H](C)[C@H]1CC[C@H]2[C@@H]3CC[C@@H]4C[C@H](O)CC[C@]4(C)[C@H]3C[C@H](O)[C@]12C` [METHYL DEOXYCHOLATE]: the figures for the residual activity in series [1] and in series [2] were 62.17% and 71.46%, respectively.
For `COC(=O)c1c(C)cc(O)cc1O` [METHYL ORSELLINATE] the same measures were 90.83% and 98.38%.
Regarding `COP(=S)(OC)Oc1ccc([N+](=O)[O-])cc1` [METHYL PARATHIONE], the residual activity is 107.9% in series [1] and 100.2% in series [2].
Consider `COc1c2c(cc3occ(-c4ccc5c(c4)OCO5)c(=O)c13)OC(C)(C)C=C2` [METHYL ROBUSTONE], for which the residual activity is listed as 133% in series [1] and 107.5% in series [2].
For `C=C1[C@@H]2CC[C@@]3(C)[C@H](c4ccoc4)OC(=O)C[C@]13O[C@H]1CC(=O)C(C)(C)[C@H](CC(=O)OC)[C@]12C` [METHYLANGOLENSATE] the same measures were 20.27% and 33.7%.
The matching figures for `Cc1coc2ccccc2c1=O` [METHYLCHROMONE]: 91.88% and 92.21%.
The matching figures for `C[C@](N)(Cc1ccc(O)c(O)c1)C(=O)O` [METHYLDOPA]: 111.3% and 103.5%.
For the compound `CC[C@@H](CO)NC(=O)[C@@H]1C=C2c3cccc4[nH]cc(c34)C[C@H]2N(C)C1.O=C(O)/C=C\C(=O)O` [METHYLERGONOVINE MALEATE], the values for the residual activity in series [1] and in series [2] were 77.53% and 108.9%, respectively.
As for `CCOC(=O)c1c(C)cc(O)c(C)c1O` [METHYLORSELLINIC ACID, ETHYL ESTER], the residual activity in series [1] was 76.13%; in series [2], 105.6%.
For `CC(=O)OCC(=O)[C@@]1(O)CC[C@H]2[C@@H]3C[C@H](C)C4=CC(=O)C=C[C@]4(C)[C@H]3[C@@H](O)C[C@@]21C` [METHYLPREDNISOLONE ACETATE] the same measures were 52.04% and 84.05%.
For `C[C@H]1C[C@@H]2[C@H]([C@@H](O)C[C@@]3(C)[C@H]2CC[C@]3(O)C(=O)CO)[C@@]2(C)C=CC(=O)C=C12` [METHYLPREDNISOLONE] the same measures were 79.56% and 93.74%.
The matching figures for `Cc1cc(=O)[nH]c(=S)[nH]1` [METHYLTHIOURACIL]: 83.19% and 80.5%.
As for `CCc1cccc(C)c1N(C(=O)CCl)C(C)COC` (configuration not stated) [METOLACHOR], the residual activity in series [1] turned out to be 93.33%; in series [2], 101.7%.
In the case of `Cc1ccccc1N1C(=O)c2cc(S(N)(=O)=O)c(Cl)cc2NC1C` (configuration not stated) [METOLAZONE], the values for the residual activity in series [1] and in series [2] were 62.42% and 66.79%, respectively.
Consider `Cc1ncc([N+](=O)[O-])n1CCO` [METRONIDAZOLE], for which the results for the residual activity in series [1] and in series [2] were 102.6% and 98.27%, respectively.
For `C[C@](N)(Cc1ccc(O)cc1)C(=O)O` [METYROSINE] the same measures were 64.38% and 84.41%.
For `COC(=O)C[C@H]1C(C)(C)C(=O)[C@@H]2CC3=C4CC(=O)O[C@@H](c5ccoc5)[C@]4(C)CC[C@@H]3[C@@]1(C)C2=O` [MEXICANOLIDE] the same measures were 44.09% and 122.7%.
The matching figures for `Clc1ccc(COC(Cn2ccnc2)c2ccc(Cl)cc2Cl)c(Cl)c1.O=[N+]([O-])O` (configuration not stated) [MICONAZOLE NITRATE]: 124.1% and 119.9%.
Consider `COc1ccc(OC)c(C(O)CNC(=O)CN)c1.Cl` (configuration not stated) [MIDODRINE HYDROCHLORIDE], for which the residual activity in series [1] is given as 101.7%; in series [2], 88.99%.
The matching figures for `OCCN1C[C@H](O)[C@@H](O)[C@H](O)[C@H]1CO` [MIGLITOL]: 99.55% and 80.3%.
The matching figures for `CCCCCCCCCCCCCCCCOP(=O)([O-])OCC[N+](C)(C)C` [MILTEFOSINE]: 89.28% and 93.25%.
`CN(C)c1ccc(O)c2c1C[C@H]1C[C@H]3[C@H](N(C)C)C(O)=C(C(N)=O)C(=O)[C@@]3(O)C(O)=C1C2=O.Cl` [MINOCYCLINE HYDROCHLORIDE]: the residual activity in series [1] was 100.7%; in series [2], 96.34%.
For the compound `Nc1cc(N2CCCCC2)nc(N)[n+]1[O-]` [MINOXIDIL], the residual activity in series [1] was 93.9%; in series [2] it was 92.39%.
For `Clc1ccc(C(c2ccccc2Cl)C(Cl)Cl)cc1` (configuration not stated) [MITOTANE] the same measures were 107.6% and 98.27%.
For `NC(=O)c1ncn([C@@H]2O[C@H](CO)[C@@H](O)[C@H]2O)c1O` [MIZORIBINE] the same measures were 113.4% and 100.4%.
The matching figures for `NC(=O)C[S+]([O-])C(c1ccccc1)c1ccccc1` (configuration not stated) [MODAFINIL]: 113.7% and 95.61%.
For `CCOC(=O)[N-]c1cn(N2CCOCC2)n[o+]1` [MOLSIDOMINE], the residual activity in series [1] is recorded as 70.9%; in series [2], 97.14%.
Consider `C[C@@H]1C[C@H]2[C@@H]3CCC4=CC(=O)C=C[C@]4(C)[C@@]3(Cl)[C@@H](O)C[C@]2(C)[C@@]1(OC(=O)c1ccco1)C(=O)CCl` [MOMETASONE FUROATE], for which the residual activity in series [1] is 34.01%; in series [2] it was 25.64%.
